According to patent US9765092B2, “Tricyclic piperidine compounds” (ACTELION PHARMACEUTICALS LTD, priority 2013, dated 2017):

Target: human TPH1 (Homo sapiens (Human), UniProt P17752)
Assay: Biochemical in vitro assay using fluorescence readout (TPH1 inhibition)
Conditions: full length human TPH1, 40 μM L-tryptophan, 15° C., 60 minutes, fluorescence at 540 nm; mean if determined several times

Sequence of human TPH1 (P17752 whole entry): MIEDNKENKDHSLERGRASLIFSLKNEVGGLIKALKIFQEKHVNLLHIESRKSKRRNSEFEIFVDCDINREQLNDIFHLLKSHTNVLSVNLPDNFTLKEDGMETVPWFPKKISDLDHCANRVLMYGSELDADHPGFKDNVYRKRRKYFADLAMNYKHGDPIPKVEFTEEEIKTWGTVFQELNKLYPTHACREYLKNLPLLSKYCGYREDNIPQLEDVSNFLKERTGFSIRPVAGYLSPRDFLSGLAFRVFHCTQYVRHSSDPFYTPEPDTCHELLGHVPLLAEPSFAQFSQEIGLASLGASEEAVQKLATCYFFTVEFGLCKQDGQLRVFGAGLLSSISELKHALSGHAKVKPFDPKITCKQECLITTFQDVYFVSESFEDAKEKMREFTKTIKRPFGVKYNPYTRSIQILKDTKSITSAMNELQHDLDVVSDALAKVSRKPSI

**Q.** How did the IC50 turn out when `Cc1nn2c3c(nc2s1)CCN(C(=O)COc1ccc(C(=O)N(C)C)nc1Cl)C3c1ccc(C(=O)N(C)C)o1` (stereo not shown) [Example 1.40.1, 6-Chloro-5-(2-(5-(5-(dimethylcarbamoyl)furan-2-yl)-2-methyl-7,8-dihydro[1,3,4]thiadiazolo[2′,3′:2,4]imidazo[4,5-c]pyridin-6(5H)-yl)-2-oxoethoxy)-N,N-dimethylpicolinamide] was run?
**A.** 90 nM

**Q.** For `Cc1nn2c3c(nc2s1)CCN(C(=O)COc1ccc(C(N)=O)cc1Cl)C3c1ccc(Cl)cc1F` (stereo not shown) [Example 1.4.26, 3-Chloro-4-(2-(5-(4-chloro-2-fluorophenyl)-2-methyl-7,8-dihydro-[1,3,4]thiadiazolo[2′,3′:2,3]imidazo[4,5-c]pyridin-6(5H)-yl)-2-oxoethoxy)benzamide], which IC50 is on record?
**A.** 10 nM

**Q.** With `Cc1nn2c3c(nc2s1)CCN(C(=O)COc1ccc(C(F)(F)F)cc1Cl)C3c1cc(C(=O)N(C)C)cs1` (stereo not shown) [Example 1.9.3, 5-(6-(2-(2-Chloro-4-(trifluoromethyl)phenoxy)acetyl)-2-methyl-5,6,7,8-tetrahydro-[1,3,4]thiadiazolo[2′,3′:2,3]imidazo[4,5-c]pyridin-5-yl)-N,N-dimethylthiophene-3-carboxamide] as the molecule, how does the IC50 read?
**A.** 77 nM

Same assay, conditions: human TPH1, fluorescence readout

**Q.** Which IC50 does the source give for `Cc1nn2c3c(nc2s1)CCN(C(=O)COc1ccc(C(F)(F)F)cc1Cl)C3c1ccc(Cl)nc1F` (stereo not shown) [Example 1.16.7, 1-(5-(6-chloro-2-fluoropyridin-3-yl)-2-methyl-7,8-dihydro-[1,3,4]thiadiazolo[2′,3′:2,3]imidazo[4,5-c]pyridin-6(5H)-yl)-2-(2-chloro-4-(trifluoromethyl)phenoxy)ethanone] here?
**A.** 5 nM

**Q.** For `Cc1nn2c3c(nc2s1)CCN(C(=O)COc1ccc(C(F)(F)F)cc1Cl)C3c1scnc1C` (stereo not shown) [Example 1.32.3, 2-(2-chloro-4-(trifluoromethyl)phenoxy)-1-(2-methyl-5-(4-methylthiazol-5-yl)-7,8-dihydro-[1,3,4]thiadiazolo [2′,3′:2,3]imidazo[4,5-c]pyridin-6(5H)-yl)ethanone], which IC50 is on record?
**A.** 10 nM

**Q.** How did the IC50 turn out when `COc1ccc(C2c3c(nc4sc(C)nn34)CCN2C(=O)COc2ccc3ccccc3c2)cc1OC` (stereo not shown) [Example 1.1.1, 1-(5-(3,4-dimethoxyphenyl)-2-methyl-7,8-dihydro-[1,3,4]thiadiazolo[2′,3′:2,3]imidazo[4,5-c]pyridin-6(5H)-yl)-2-(naphthalen-2-yloxy)ethanone] was run?
**A.** 10 nM

**Q.** For `CN(C)C(=O)c1cc(F)c(C2c3c(nc4sccn34)CCN2C(=O)COc2ccc(NS(C)(=O)=O)cc2Cl)s1` (stereo not shown) [Example 6.9.1, 5-(6-(2-(2-chloro-4-(methylsulfonamido)phenoxy)-acetyl)-5,6,7,8-tetrahydrothiazolo[2′,3′:2,3]imidazo[4,5-c]pyridin-5-yl)-4-fluoro-N,N-dimethylthiophene-2-carboxamide], which IC50 is on record?
**A.** 2 nM

**Q.** Which IC50 does the source give for `Cc1nn2c3c(nc2s1)CCN(C(=O)COc1cccnc1C)C3c1ccc(C2CC2)cc1F` (stereo not shown) [Example 1.6.6, 1-(5-(4-cyclopropyl-2-fluorophenyl)-2-methyl-7,8-dihydro-[1,3,4]thiadiazolo[2′,3′:2,3]imidazo[4,5-c]pyridin-6(5H)-yl)-2-((2-methylpyridin-3-yl)oxy)ethanone] here?
**A.** 25 nM

**Q.** How did the IC50 turn out when `COC(=O)c1cnc(C2c3c(nc4sc(C)nn34)CCN2C(=O)COc2ccc(NS(=O)(=O)C3CC3)nc2Cl)s1` (stereo not shown) [Example 1.28.3, Methyl 2-(6-(2-((2-chloro-6-(cyclopropanesulfonamido)pyridin-3-yl)oxy)acetyl)-2-methyl-5,6,7,8-tetrahydro-[1,3,4]thiadiazolo[2′,3′:2,3]imidazo[4,5-c]pyridin-5-yl)thiazole-5-carboxylate] was run?
**A.** 45 nM

**Q.** For `CS(=O)(=O)Nc1ccc(OCC(=O)N2CCc3nc4sccn4c3C2c2sccc2F)c(Cl)n1` (stereo not shown) [Example 6.8.4, N-(6-chloro-5-(2-(5-(3-fluorothiophen-2-yl)-7,8-dihydrothiazolo[2′,3′:2,3]imidazo[4,5-c]pyridin-6(5H)-yl)-2-oxoethoxy)pyridin-2-yl)methanesulfonamide], which IC50 is on record?
**A.** 7 nM

**Q.** With `Cc1nn2c3c(nc2s1)CCN(C(=O)COc1ccc(C(=O)N(C)C)nc1Cl)C3c1ncc(C2CC2)cc1F` (stereo not shown) [Example 1.14.8, 6-chloro-5-(2-(5-(5-cyclopropyl-3-fluoropyridin-2-yl)-2-methyl-7,8-dihydro-[1,3,4]thiadiazolo[2′,3′:2,3]imidazo[4,5-c]pyridin-6(5H)-yl)-2-oxoethoxy)-N,N-dimethylpicolinamide] as the molecule, how does the IC50 read?
**A.** 3 nM

**Q.** `Cc1nn2c3c(nc2s1)CCN(C(=O)COc1ccc(C(=O)N(C)C)nc1Cl)C3c1ccc(C2CC2)cc1F` (stereo not shown) [Example 1.6.25, 6-chloro-5-(2-(5-(4-cyclopropyl-2-fluorophenyl)-2-methyl-7,8-dihydro-[1,3,4]thiadiazolo[2′,3′:2,3]imidazo[4,5-c]pyridin-6(5H)-yl)-2-oxoethoxy)-N,N-dimethylpicolinamide] was tested. Which IC50 did it give?
**A.** 4 nM

**Q.** For `Cc1nn2c3c(nc2s1)CCN(C(=O)COc1ccc(C#N)nc1Cl)C3c1ncc(C2CC2)cc1F` (stereo not shown) [Example 1.14.4, 6-chloro-5-(2-(5-(5-cyclopropyl-3-fluoropyridin-2-yl)-2-methyl-7,8-dihydro-[1,3,4]thiadiazolo[2′,3′:2,3]imidazo[4,5-c]pyridin-6(5H)-yl)-2-oxoethoxy)picolinonitrile], which IC50 is on record?
**A.** 17 nM

**Q.** `CCc1nc(NS(C)(=O)=O)ccc1OCC(=O)N1CCc2nc3sc(C(F)(F)F)nn3c2C1c1ncc(C)cc1F` (stereo not shown) [Example 5.2.2, N-(6-ethyl-5-(2-(5-(3-fluoro-5-methylpyridin-2-yl)-2-(trifluoromethyl)-7,8-dihydro-[1,3,4]thiadiazolo[2′,3′:2,3]imidazo[4,5-c]pyridin-6(5H)-yl)-2-oxoethoxy)pyridin-2-yl)methanesulfonamide] was tested. Which IC50 did it give?
**A.** 42 nM

**Q.** For `CNC(=O)c1cc(F)c(C2c3c(nc4sc(C)nn34)CCN2C(=O)COc2ccc(C(F)(F)F)nc2Cl)s1` (stereo not shown) [Example 1.25.3, 5-(6-(2-((2-chloro-6-(trifluoromethyl)pyridin-3-yl)oxy)acetyl)-2-methyl-5,6,7,8-tetrahydro-[1,3,4]thiadiazolo [2′,3′:2,3]imidazo[4,5-c]pyridin-5-yl)-4-fluoro-N-methylthiophene-2-carboxamide], which IC50 is on record?
**A.** 35 nM

**Q.** For `Cc1nn2c3c(nc2s1)CCN(C(=O)COc1ccc(N2CCOCC2)nc1Cl)C3c1nc(C(=O)N(C)C)cs1` (stereo not shown) [Example 1.18.1, 2-(6-(2-((2-chloro-6-morpholinopyridin-3-yl)oxy)acetyl)-2-methyl-5,6,7,8-tetrahydro-[1,3,4]thiadiazolo[2′,3′:2,3]imidazo[4,5-c]pyridin-5-yl)-N,N-dimethylthiazole-4-carboxamide], which IC50 is on record?
**A.** 14 nM

**Q.** `CCc1ncccc1OCC(=O)N1CCc2nc3sc(C)nn3c2C1c1ccc(Cl)cc1F` (stereo not shown) [Example 1.4.5, 1-(5-(4-chloro-2-fluorophenyl)-2-methyl-7,8-dihydro-[1,3,4]thiadiazolo[2′,3′:2,3]imidazo[4,5-c]pyridin-6(5H)-yl)-2-((2-ethylpyridin-3-yl)oxy)ethanone] was tested. Which IC50 did it give?
**A.** 13 nM

**Q.** For `Cc1cnc([C@H]2c3c(nc4sc(C)nn34)CCN2C(=O)COc2ccc(N(C)S(C)(=O)=O)nc2Cl)c(F)c1` [Example 1.31.15, (R)-N-(6-chloro-5-(2-(5-(3-fluoro-5-methylpyridin-2-yl)-2-methyl-7,8-dihydro-[1,3,4]thiadiazolo[2′,3′:2,3]-imidazo[4,5-c]pyridin-6(5H)-yl)-2-oxoethoxy)pyridin-2-yl)-N-methylmethanesulfonamide], which IC50 is on record?
**A.** 9 nM

**Q.** With `CS(=O)(=O)Nc1ccc(OCC(=O)N2CCc3nc4sccn4c3C2c2sccc2F)c(Cl)c1` (stereo not shown) [Example 6.8.5, N-(3-chloro-4-(2-(5-(3-fluorothiophen-2-yl)-7,8-dihydro-thiazolo[2′,3′:2,3]imidazo[4,5-c]pyridin-6(5H)-yl)-2-oxoethoxy)phenyl)methanesulfonamide] as the molecule, how does the IC50 read?
**A.** 9 nM

**Q.** `Cc1nn2c3c(nc2s1)CCN(C(=O)COc1ccc(NS(C)(=O)=O)nc1Cl)C3c1sc(C(C)C)nc1C` (stereo not shown) [Example 1.73.1, N-(6-chloro-5-(2-(5-(2-isopropyl-4-methylthiazol-5-yl)-2-methyl-7,8-dihydro-[1,3,4]thiadiazolo[2′,3′:2,3]imidazo[4,5-c]pyridin-6(5H)-yl)-2-oxoethoxy)pyridin-2-yl)methanesulfonamide] was tested. Which IC50 did it give?
**A.** 60 nM

**Q.** How did the IC50 turn out when `Cc1nn2c3c(nc2s1)CCN(C(=O)COc1ccc(N2CCOCC2)cc1Cl)C3c1ccc(Cl)cc1F` (stereo not shown) [Example 1.4.3, 1-(5-(4-chloro-2-fluorophenyl)-2-methyl-7,8-dihydro-[1,3,4]thiadiazolo[2′,3′:2,3]imidazo[4,5-c]pyridin-6(5H)-yl)-2-(2-chloro-4-morpholinophenoxy)ethanone] was run?
**A.** 4 nM

**Q.** `Cc1nn2c3c(nc2s1)CCN(C(=O)COc1ccc(N2CC(F)(F)C2)nc1Cl)C3c1sc(C(=O)N(C)C)cc1F` (stereo not shown) [Example 1.24.6, 5-(6-(2-((2-chloro-6-(3,3-difluoroazetidin-1-yl)pyridin-3-yl)oxy)acetyl)-2-methyl-5,6,7,8-tetrahydro-[1,3,4]thiadiazolo [2′,3′:2,3]imidazo[4,5-c]pyridin-5-yl)-4-fluoro-N,N-dimethylthiophene-2-carboxamide] was tested. Which IC50 did it give?
**A.** 5 nM

**Q.** `CCc1nc(N2CCCS2(=O)=O)ccc1OCC(=O)N1CCc2nc3sc(C(F)F)nn3c2C1c1sc(C)nc1C` (stereo not shown) [Example 8.3.2, 1-(2-(difluoromethyl)-5-(2,4-dimethylthiazol-5-yl)-7,8-dihydro-[1,3,4]thiadiazolo[2′,3′:2,3]imidazo[4,5-c]pyridin-6(5H)-yl)-2-((6-(1,1-dioxidoisothiazolidin-2-yl)-2-ethylpyridin-3-yl)oxy)ethanone] was tested. Which IC50 did it give?
**A.** 13 nM

**Q.** For `Cc1nn2c3c(nc2s1)CCN(C(=O)COc1ccc(C(=O)N(C)C)nc1Cl)C3c1sc(C(=O)N(C)C)cc1F` (stereo not shown) [Example 1.24.7, 6-chloro-5-(2-(5-(5-(dimethylcarbamoyl)-3-fluorothiophen-2-yl)-2-methyl-7,8-dihydro-[1,3,4]thiadiazolo[2′,3′:2,3]imidazo[4,5-c]pyridin-6(5H)-yl)-2-oxoethoxy)-N,N-dimethylpicolinamide], which IC50 is on record?
**A.** 5 nM

**Q.** With `COc1ccc(C2c3c(nc4sccn34)CCN2C(=O)COc2ccc(Cl)cc2Cl)cc1OC` (stereo not shown) [Example 6.1.3, 2-(2,4-dichlorophenoxy)-1-(5-(3,4-dimethoxyphenyl)-7,8-dihydrothiazolo[2′,3′:2,3]imidazo[4,5-c]pyridin-6(5H)-yl)ethanone] as the molecule, how does the IC50 read?
**A.** 7 nM
